Drawing on BindingDB's records for doi:10.1016/j.bmcl.2003.09.065 (Northwestern University, 2003), this text covers Ki for one compound.

A short description of this experiment: KI for pyridoxal 5'-phosphate (PLP)-dependent Gamma-amino-N-butyrate transaminase at pH 7.4.

pKi: −log10 of the molar value.

The compound `NC1C=C(C(=O)O)OC1` (stereo unspecified) [4-Amino-4,5-dihydro-furan-2-carboxylic acid anion] gave a pKi of 5.20.

What is called pKi is the negative decadic logarithm of the Ki, by convention in mol/L. High values mean a low Ki, low ones a high Ki.
